The Kd is the constant that tells how readily two partners part at equilibrium. A lower Kd goes with a tighter complex.

Assay [1] concerns the target A2A adenosine receptor (A2AR*, with mutations A54L, T88A, K122A, and V239A) (Homo sapiens, UniProt P29274, A54L/K122A/T88A/V239A). The assay can be described thus: Biacore kinetic analysis of antagonists binding to capture-coupled A2AR*. In general terms: Surface plasmon resonance follows binding to a sensor surface in real time, without labels.
Assay [2] addresses β1 adrenergic receptor (β1AR*, with mutations R68S, Y227A, A282L, F237A, and F338M) (Meleagris gallopavo, UniProt P07700, A282L/F327A/F338M/R68S/Y227A). In words: biochemical. It is filed as binding, turkey.
Assay [3] deals with β1 adrenergic receptor (β1AR*) (Meleagris gallopavo, UniProt P07700, A282L/F327A/F338M/R68S/Y227A). The assay can be described thus: biochemical. It is filed as binding, turkey.

Each structure is given as a SMILES string.

In turn, `CCCn1c(=O)[nH]c2nc(-c3ccc(S(=O)(=O)O)cc3)[nH]c2c1=O` [PSB 1115] came in with a Kd in assay [1] (A2AR, approximate value given in text for the displacement-regeneration compound) of roughly 1 µM.

On to `Nc1nc2c(cnn2CCc2ccccc2)c2nc(-c3ccco3)nn12` [SCH 58261], for which, in assay [1], the kd is on record as 6.6(2) × 10^−2 s^−1. In assay [1] (biacore capture-coupled a2ar*), the ka was 1.00(3) × 10^6 M^−1s^−1.

Consider `C=CCc1ccccc1OCC(O)CNC(C)C` (centres unmarked) [alprenolol], for which, in assay [2], binding was characterised by a dissociation constant (Kd) of 0.019 µM, the ka was 1.31(4) × 10^6 M^−1s^−1 and the kd was 2.49(7) × 10^−2 s^−1.

In turn, `CC(C)NCC(O)COc1ccc(CC(N)=O)cc1` (centres unmarked) [atenolol] displayed a Kd in assay [3] of 49.2 µM.

`COc1ccc(OC)c(C(O)C(C)NC(C)(C)C)c1` (centres unmarked) [butoxamine]: binding in assay [3] was put at a Kd of 5.15 µM.

Take `CC(C)(C)NCC(O)c1cc(Cl)c(N)c(Cl)c1` (centres unmarked) [clenbuterol]: in assay [2], the affinity, expressed as Kd, was 0.54 µM; the ka was 2.47(9) × 10^5 M^−1s^−1; the kd is given as 1.33(5) × 10^−1 s^−1.

As to `C[C@@H](CO)NC(=O)[C@@H]1C=C2c3cccc4[nH]cc(c34)C[C@H]2N(C)C1` [ergonovine], in assay [3], the equilibrium dissociation constant (Kd) was found to be 84.1 µM.

Consider `CC(CCc1ccccc1)NCC(O)c1ccc(O)c(C(N)=O)c1` (centres unmarked) [labetalol], for which, in assay [2], the Kd came out at 0.095 µM.

On to `CC[C@@H](CO)NC(=O)[C@@H]1C=C2c3cccc4[nH]cc(c34)C[C@H]2N(C)C1` [methylergonovine], for which the dissociation constant (Kd) in assay [3] came out at 49.6 µM.

For `OC(CNCC(O)C1CCc2cc(F)ccc2O1)C1CCc2cc(F)ccc2O1` (centres unmarked) [nebivolol], the kd in assay [2] was 1.50(3) × 10^−2 s^−1.

`NCCc1c[nH]c2ccc(O)cc12` [serotonin] returned a Kd in assay [3] of 14.2 µM.

`CC(C)(C)NC[C@H](O)COc1nsnc1N1CCOCC1` [timolol]: the kd in assay [2] is 6.94(8) × 10^−3 s^−1.
